# Species on record: Rattus norvegicus
# Assay: DrugMatrix - Regimen: Daily Repeat
# Type: toxicity, organism-based, Sprague-Dawley
# Design: regimen Daily Repeat, gender Male, age 6-8 weeks
# Settings: in vivo, po, route oral GAVAGE, vehicle .5 % CMC; for ABSOLUTE BASOPHIL / ABSOLUTE EOSINOPHIL / ABSOLUTE LYMPHOCYTE / ABSOLUTE MONOCYTE / ABSOLUTE SEGMENTED NEUTROPHIL / BASOPHIL / EOSINOPHIL / ERYTHROCYTE COUNT / HEMATOCRIT / HEMOGLOBIN / LEUKOCYTE COUNT / LYMPHOCYTE / MEAN CORPUSCULAR HEMOGLOBIN / MEAN CORPUSCULAR HEMOGLOBIN CONCENTRATION / MEAN CORPUSCULAR VOLUME / MONOCYTE / NEUTROPHIL / NUCLEATED RED BLOOD CELLS / PLATELET COUNT: tissue Blood; for ALANINE AMINOTRANSFERASE / ALBUMIN / ALKALINE PHOSPHATASE / ASPARTATE AMINOTRANSFERASE / BLOOD UREA NITROGEN / CARBON DIOXIDE / CHLORIDE / CHOLESTEROL / CREATINE PHOSPHOKINASE / CREATININE / GLUCOSE / LACTATE DEHYDROGENASE / LIPASE / PHOSPHORUS / POTASSIUM / SODIUM / TOTAL BILIRUBIN / TOTAL PROTEIN / URIC ACID: tissue Plasma
# [1] = 44 mg/kg, 120 h, dose level Low, time 5 day
# [2] = 439 mg/kg, 72 h, dose level High, time 3 day
# [3] = 439 mg/kg, 120 h, dose level High, time 5 day
smiles,measurement,setting,value
Brc1ccccc1 [BROMOBENZENE],ABSOLUTE BASOPHIL,[1],0 CELLS/uL
same,ABSOLUTE EOSINOPHIL,[1],0 CELLS/uL
same,ABSOLUTE LYMPHOCYTE,[1],9552.67 CELLS/uL
same,ABSOLUTE MONOCYTE,[1],143.67 CELLS/uL
same,ABSOLUTE SEGMENTED NEUTROPHIL,[1],903.67 CELLS/uL
same,BASOPHIL,[1],0%
same,EOSINOPHIL,[1],0%
same,ERYTHROCYTE COUNT,[1],5.33 x10E6/uL
same,HEMATOCRIT,[1],32.83%
same,HEMOGLOBIN,[1],12.7 G/DL
same,LEUKOCYTE COUNT,[1],10.6 x10E3/uL
same,LYMPHOCYTE,[1],90%
same,MEAN CORPUSCULAR HEMOGLOBIN,[1],23.83 pg
same,MEAN CORPUSCULAR HEMOGLOBIN CONCENTRATION,[1],38.7 G/DL
same,MEAN CORPUSCULAR VOLUME,[1],61.57 fL
same,MONOCYTE,[1],1.33%
same,NEUTROPHIL,[1],8.67%
same,NUCLEATED RED BLOOD CELLS,[1],0 /100WBC
same,PLATELET COUNT,[1],1057.33 x10E3/uL
same,ALANINE AMINOTRANSFERASE,[1],40.67 u/L
same,ALBUMIN,[1],4.3 G/DL
same,ALKALINE PHOSPHATASE,[1],334.67 u/L
same,ASPARTATE AMINOTRANSFERASE,[1],69.67 u/L
same,BLOOD UREA NITROGEN,[1],14.67 mg/dL
same,CARBON DIOXIDE,[1],26.33 mmol/L
same,CHLORIDE,[1],101.67 MEQ/L
same,CHOLESTEROL,[1],64.33 mg/dL
same,CREATINE PHOSPHOKINASE,[1],162.67 u/L
same,CREATININE,[1],0.24 mg/dL
same,GLUCOSE,[1],160 mg/dL
same,LACTATE DEHYDROGENASE,[1],86.67 u/L
same,LIPASE,[1],9.33 u/L
same,PHOSPHORUS,[1],11.83 mg/dL
same,POTASSIUM,[1],6.35 MEQ/L
same,SODIUM,[1],144.7 MEQ/L
same,TOTAL BILIRUBIN,[1],0.1 mg/dL
same,TOTAL PROTEIN,[1],6.2 G/DL
same,URIC ACID,[1],1.67 mg/dL
same,ABSOLUTE BASOPHIL,[2],0 CELLS/uL
same,ABSOLUTE EOSINOPHIL,[2],46.33 CELLS/uL
same,ABSOLUTE LYMPHOCYTE,[2],10833.67 CELLS/uL
same,ABSOLUTE MONOCYTE,[2],138 CELLS/uL
same,ABSOLUTE SEGMENTED NEUTROPHIL,[2],1815.33 CELLS/uL
same,BASOPHIL,[2],0%
same,EOSINOPHIL,[2],0.33%
same,ERYTHROCYTE COUNT,[2],4.81 x10E6/uL
same,HEMATOCRIT,[2],30.27%
same,HEMOGLOBIN,[2],11.9 G/DL
same,LEUKOCYTE COUNT,[2],12.83 x10E3/uL
same,LYMPHOCYTE,[2],85.33%
same,MEAN CORPUSCULAR HEMOGLOBIN,[2],24.7 pg
same,MEAN CORPUSCULAR HEMOGLOBIN CONCENTRATION,[2],39.3 G/DL
same,MEAN CORPUSCULAR VOLUME,[2],62.83 fL
same,MONOCYTE,[2],1%
same,NEUTROPHIL,[2],13.33%
same,NUCLEATED RED BLOOD CELLS,[2],0.33 /100WBC
same,PLATELET COUNT,[2],1082.33 x10E3/uL
same,ALANINE AMINOTRANSFERASE,[2],59 u/L
same,ALBUMIN,[2],4.17 G/DL
same,ALKALINE PHOSPHATASE,[2],378.33 u/L
same,ASPARTATE AMINOTRANSFERASE,[2],83.67 u/L
same,BLOOD UREA NITROGEN,[2],15 mg/dL
same,CARBON DIOXIDE,[2],29.33 mmol/L
same,CHLORIDE,[2],100.67 MEQ/L
same,CHOLESTEROL,[2],84.67 mg/dL
same,CREATINE PHOSPHOKINASE,[2],171 u/L
same,CREATININE,[2],0.22 mg/dL
same,GLUCOSE,[2],160 mg/dL
same,LACTATE DEHYDROGENASE,[2],172 u/L
same,LIPASE,[2],12 u/L
same,PHOSPHORUS,[2],12.47 mg/dL
same,POTASSIUM,[2],6.1 MEQ/L
same,SODIUM,[2],143.47 MEQ/L
same,TOTAL BILIRUBIN,[2],0.13 mg/dL
same,TOTAL PROTEIN,[2],5.97 G/DL
same,URIC ACID,[2],1.03 mg/dL
same,ABSOLUTE BASOPHIL,[3],0 CELLS/uL
same,ABSOLUTE EOSINOPHIL,[3],0 CELLS/uL
same,ABSOLUTE LYMPHOCYTE,[3],9268 CELLS/uL
same,ABSOLUTE MONOCYTE,[3],132.4 CELLS/uL
same,ABSOLUTE SEGMENTED NEUTROPHIL,[3],919.6 CELLS/uL
same,BASOPHIL,[3],0%
same,EOSINOPHIL,[3],0%
same,ERYTHROCYTE COUNT,[3],5.45 x10E6/uL
same,HEMATOCRIT,[3],32.3%
same,HEMOGLOBIN,[3],12.54 G/DL
same,LEUKOCYTE COUNT,[3],10.32 x10E3/uL
same,LYMPHOCYTE,[3],89.6%
same,MEAN CORPUSCULAR HEMOGLOBIN,[3],23 pg
same,MEAN CORPUSCULAR HEMOGLOBIN CONCENTRATION,[3],38.82 G/DL
same,MEAN CORPUSCULAR VOLUME,[3],59.26 fL
same,MONOCYTE,[3],1.2%
same,NEUTROPHIL,[3],9.2%
same,NUCLEATED RED BLOOD CELLS,[3],0.2 /100WBC
same,PLATELET COUNT,[3],1078.8 x10E3/uL
same,ALANINE AMINOTRANSFERASE,[3],43.2 u/L
same,ALBUMIN,[3],4.4 G/DL
same,ALKALINE PHOSPHATASE,[3],375.2 u/L
same,ASPARTATE AMINOTRANSFERASE,[3],72.8 u/L
same,BLOOD UREA NITROGEN,[3],16.2 mg/dL
same,CARBON DIOXIDE,[3],25.2 mmol/L
same,CHLORIDE,[3],102.4 MEQ/L
same,CHOLESTEROL,[3],77.2 mg/dL
same,CREATINE PHOSPHOKINASE,[3],262.4 u/L
same,CREATININE,[3],0.2 mg/dL
same,GLUCOSE,[3],153.6 mg/dL
same,LACTATE DEHYDROGENASE,[3],118.8 u/L
same,LIPASE,[3],9.6 u/L
same,PHOSPHORUS,[3],12.5 mg/dL
same,POTASSIUM,[3],6.84 MEQ/L
same,SODIUM,[3],144.22 MEQ/L
same,TOTAL BILIRUBIN,[3],0.18 mg/dL
same,TOTAL PROTEIN,[3],6.18 G/DL
same,URIC ACID,[3],1.92 mg/dL

# Reference: ChEMBL document CHEMBL3885881, “DrugMatrix”
